Reference: patent publication US7968577B2 (Bristol-Myers Squibb Company, priority 2006, dated 2011)

System: AP-1 induced transcriptional activity
Assay: Cellular Transrepressional Assay: AP-1 luciferase reporter in PMA-activated A549 cells
Format: cell-based
Conditions: for Emax: A549, 7 h, read-out: AP-1 Max % inh (Cellular Transrepression Assay)
Experimental: Cellular Transrepressional Assay
To measure the ability of test molecules to inhibit AP-1 induced transcriptional activity we utilized an A549 cell which was stably transfected with a plasmid containing 7× AP-1 DNA binding sites (pAP-1-Luc plasmid, Stratagene Co. La Jolla, Calif.) followed by the gene for luciferase. Cells were activated with 10 ng/ml of […] (PMA) plus or minus test molecules for 7 hours. After 7 hours a luciferase reagent was added to measure luciferase enzymatic activity in the cell. After a 10 minute incubation of luciferase reagent with cells, luminescence was measured in a TopCount luminescence counter. Repression of AP-1 activity was calculated as the percentage decrease in the signal induced by PMA alone. Test molecules were analyzed in the concentration range from 0.1 nM to 40 μM. EC50s were determined by using standard curve fitting methods such as Excel fit (Microsoft Co.).

[1] = Homo sapiens, maximum inhibition, Cellular Transrepression Assay
[2] = Homo sapiens, A549, Cellular Transrepression Assay

Row | SMILES | EC50 [2] [nM] | EC50 (Cellular Transrepression Assay) [nM] | Emax [1] [%] | AP-1 Max % inh (Cellular Transrepression Assay) (maximum inhibition, Cellular Transrepression Assay) [%]
1 | O=C(Nc1nccs1)C1(C(c2ccccc2)c2ccccc2)CCCC1 [Example 162, 1-(diphenylmethyl)-N-1,3-thiazol-2-ylcyclopentanecarboxamide] | – | – | 22.8 | –
2 | CC(C)(c1ccccc1)c1csc(NC(=O)C(C)(C)C(c2ccccc2)c2ccccc2)n1 [Example 181, 2,2-dimethyl-N-(4-(1-methyl-1-phenylethyl)-1,3-thiazol-2-yl)-3,3-diphenylpropanamide] | – | – | 28.9 | –
3 | CC(C)(C(=O)Nc1nc2ccc(Cl)cc2s1)C(c1ccccc1)c1ccc(O)cc1 (centres unmarked) [Example 220, N-(6-chloro-1,3-benzothiazol-2-yl)-3-(4-hydroxyphenyl)-2,2-dimethyl-3-phenylpropanamide] | – | – | 36.2 | –
4 | COc1ccccc1C(c1ccccc1)C(C)(C)C(=O)Nc1ncc(C)s1 (centres unmarked) [Example 82, 2,2-dimethyl-3-(2-(methyloxy)phenyl)-N-(5-methyl-1,3-thiazol-2-yl)-3-phenylpropanamide] | – | – | 25.9 | –
5 | CC(C)(C(=O)Nc1nccs1)[C@@H](c1ccccc1)c1ccc(OC(=O)C2CCCO2)cc1 (stereo partly drawn) [Example 366, 4-((1S)-2,2-dimethyl-3-oxo-1-phenyl-3-(1,3-thiazol-2-ylamino)propyl)phenyl tetrahydro-2-furancarboxylate] | 20 | – | 32.6 | –
6 | Cc1cnc(NC(=O)C(C)(C)C(c2ccccc2)c2cccc(O)c2)s1 (centres unmarked) [Example 199, 3-(3-hydroxyphenyl)-2,2-dimethyl-N-(5-methyl-1,3-thiazol-2-yl)-3-phenylpropanamide] | – | – | 31.1 | –
7 | CC(C)(C(=O)NC1CCCC1)[C@@H](c1ccccc1)c1ccc(O)cc1 [Example 335, (3S)-N-cyclopentyl-3-(4-hydroxyphenyl)-2,2-dimethyl-3-phenylpropanamide] | 9.32 | – | 21.2 | –
8 | Cc1ccc(-c2csc(NC(=O)C(C)(C)C(c3ccccc3)c3ccccc3)n2)c2ccccc12 [Example 164, 2,2-dimethyl-N-(4-(4-methyl-1-naphthalenyl)-1,3-thiazol-2-yl)-3,3-diphenylpropanamide] | 810 | – | 75.2 | –
9 | CC(C)(C(=O)Nc1nc(-c2ccc(F)c3ccccc23)cs1)C(c1ccccc1)c1ccccc1 [Example 183, N-(4-(4-fluoro-1-naphthalenyl)-1,3-thiazol-2-yl)-2,2-dimethyl-3,3-diphenylpropanamide] | – | – | 65.3 | –
10 | CCOC(=O)/C(=N/OC)c1csc(NC(=O)C(C)(C)C(c2ccccc2)c2ccccc2)n1 [Example 49, ethyl (2E)-(2-((2,2-dimethyl-3,3-diphenylpropanoyl)amino)-1,3-thiazol-4-yl)((methyloxy)imino)ethanoate] | – | – | 20.1 | –
11 | COc1ccccc1C(c1ccccc1)C(C)(C)C(=O)Nc1nc(-c2ccccc2)cs1 (centres unmarked) [Example 84, 2,2-dimethyl-3-(2-(methyloxy)phenyl)-3-phenyl-N-(4-phenyl-1,3-thiazol-2-yl)propanamide] | – | – | 30.8 | –
12 | COc1cccc(C(c2ccccc2)C(C)(C)C(=O)Nc2nc3ccccc3s2)c1 (centres unmarked) [Example 101, N-1,3-benzothiazol-2-yl-2,2-dimethyl-3-(3-(methyloxy)phenyl)-3-phenylpropanamide] | – | – | 26.9 | –
13 | COc1cccc(C(c2ccccc2)C(C)(C)C(=O)Nc2nc(Cc3ccc(-c4ccncc4)cc3)cs2)c1 (centres unmarked) [Example 305, 2,2-dimethyl-3-(3-(methyloxy)phenyl)-3-phenyl-N-(4-((4-(4-pyridinyl)phenyl)methyl)-1,3-thiazol-2-yl)propanamide] | 22.5 | – | 84.2 | –
14 | CCOC(=O)c1sc(NC(=O)C(C)(C)C(c2ccccc2)c2cccc(OC)c2)nc1C (centres unmarked) [Example 100, ethyl 2-((2,2-dimethyl-3-(3-(methyloxy)phenyl)-3-phenylpropanoyl)amino)-4-methyl-1,3-thiazole-5-carboxylate] | – | – | 30 | –
15 | COc1cccc(C(c2ccccc2)C(C)(C)C(=O)Nc2nc(CCc3ccccc3)cs2)c1 (centres unmarked) [Example 97, 2,2-dimethyl-3-(3-(methyloxy)phenyl)-3-phenyl-N-(4-(2-phenylethyl)-,3-thiaozl-2-yl)propanamide] | – | – | 26.5 | –
16 | CC(C)(C(=O)Nc1nccs1)C(c1ccccc1)c1ccc(O)c(F)c1 (centres unmarked) [Example 347, 3-(3-fluoro-4-hydroxyphenyl)-2,2-dimethyl-3-phenyl-N-1,3-thiazol-2-ylpropanamide] | – | 10.8 | – | 55.26
17 | CC(C)(C(=O)Nc1nncs1)C(c1ccc(N2CCOCC2)cc1)c1cccc(F)c1 (single isomer, unassigned) [Example 255, 3-(3-fluroophenyl)-2,2-dimethyl-3-(4-(4-morpholinyl)phenyl)-N-1,3,4-thiadiazol-2-ylpropanamide] | 10.2 | – | 43 | –
18 | CC(C)(C(=O)Nc1nc(CCc2ccccc2)cs1)C(c1ccccc1)c1cccc(O)c1 (centres unmarked) [Example 203, 3-(3-hydroxyphenyl)-2,2-dimethyl-3-phenyl-N-(4-(2-phenylethyl)-1,3-thiazol-2-yl)propanamide] | – | – | 35.1 | –
19 | COc1cccc(C(c2ccccc2)C(C)(C)C(=O)Nc2nc(C(C)(C)C)cs2)c1 (centres unmarked) [Example 96, N-(4-(1,1-dimethylethyl)-1,3-thiazol-2-yl)-2,2-dimethyl-3-(3-(methyloxy)phenyl)-3-phenylpropanamide] | – | – | 37.1 | –
20 | CC(C)(C(=O)Nc1nccs1)C(c1ccc(N2CCOCC2)cc1)c1cccc(F)c1 (single isomer, unassigned) [Example 253, 3-(3-fluorophenyl)-2,2-dimethyl-3-(4-(4-morpholinyl)phenyl)-N-1,3-thiazol-2-ylpropanamide] | 37 | – | 27.9 | –

Second part, led by results:

Row | EC50 [2] [nM] | EC50 (Cellular Transrepression Assay) [nM] | SMILES | Emax [1] [%] | AP-1 Max % inh (Cellular Transrepression Assay) (maximum inhibition, Cellular Transrepression Assay) [%]
21 | 28.1 | – | CC(C)Oc1ccc(-c2ccc(C(c3ccccc3)C(C)(C)C(=O)Nc3nncs3)cc2)cc1 (centres unmarked) [Example 382, 2,2-dimethyl-3-(4′-((1-methylethyl)oxy)-4-biphenylyl)-3-phenyl-N-1,3,4-thiadiazol-2-ylpropanamide] | 40.1 | –
22 | 13.3 | – | CC(C)(C(=O)Nc1nncs1)C(c1ccccc1)c1ccc(-c2ccc(C(=O)N3CCOCC3)cc2)cc1 (centres unmarked) [Example 401, 2,2-dimethyl-3-(4′-(4-morpholinylcarbonyl)-4-biphenylyl)-3-phenyl-N-1,3,4-thiadiazol-2-ylpropanamide] | 47 | –
23 | 184 | – | CC(C)(C(=O)Nc1nccs1)[C@@H](c1ccccc1)c1ccc(OC(=O)c2ccoc2)cc1 [Example 364, 4-((1S)-2,2-dimethyl-3-oxo-1-phenyl-3-(1,3-thiazol-2-ylamino)propyl)phenyl 3-furancarboxylate] | 39.1 | –
24 | 100 | – | CC(C)(C(=O)Nc1nc(Cc2ccc(-c3ccncc3)cc2)cs1)C(c1ccccc1)c1ccc(O)cc1 (centres unmarked) [Example 353, 3-(4-hydroxyphenyl)-2,2-dimethyl-3-phenyl-N-(4-((4-(4-pyridinyl)phenyl)methyl)-1,3-thiazol-2-yl)propanamide] | 77.8 | –
25 | – | 114 | CC(C)(C(=O)Nc1nncs1)C(c1ccccc1)c1ccc(N2CCOCC2)cc1 (centres unmarked) [Example 225, 2,2-dimethyl-3-(4-(4-morpholinyl)phenyl)-3-phenyl-N-1,3,4-thiadiazol-2-ylpropanamide] | 34.3 | –
26 | 151 | – | CC(C)(C(=O)Nc1nncs1)C(c1ccccc1)c1ccc(N2CCCCC2)cc1 (centres unmarked) [Example 236, 2,2-dimethyl-3-phenyl-3-(4-(1-piperidinyl)phenyl)-N-1,3,4-thiadiazol-2-ylpropanamide] | 38.5 | –
27 | 16.6 | – | CC(C)(C(=O)Nc1nccs1)[C@@H](c1ccccc1)c1ccc(OC(=O)c2ccco2)cc1 [Example 362, 4-((1S)-2,2-dimethyl-3-oxo-1-phenyl-3-(1,3-thiazol-2-ylamino)propyl)phenyl 2-furancarboxylate] | 33.4 | –
28 | 158 | – | CC(C)(C(=O)Nc1nc(Cc2ccc(-c3ccncc3)cc2)cs1)[C@@H](c1ccccc1)c1ccc(O)cc1 [Example 354, 3-(4-hydroxyphenyl)-2,2-dimethyl-3-phenyl-N-(4-((4-(4-pyridinyl)phenyl)methyl)-1,3-thiazol-2-yl)propanamide] | 71.8 | –
29 | 10.2 | – | CC(C)(C(=O)Nc1nc(Cc2ccc(-c3ccncc3)cc2)cs1)C(c1ccccc1)c1ccc(Cl)cc1 (centres unmarked) [Example 301, 3-(4-chlorophenyl)-2,2-dimethyl-3-phenyl-N-(4-((4-(4-pyridinyl)phenyl)methyl)-1,3-thiazol-2-yl)propanamide] | 73.7 | –
30 | 14.5 | – | CC(C)(C)NC(=O)c1ccc(-c2ccc(C(c3ccccc3)C(C)(C)C(=O)Nc3nncs3)cc2)cc1 (centres unmarked) [Example 424, N-tert-butyl-4′-(2,2-dimethyl-3-oxo-1-phenyl-3-(1,3,4-thiadiazol-2-ylamino)propyl)-4-biphenylcarboxamide] | 26.4 | –
31 | 16.4 | – | CC(C)(C(=O)Nc1nncs1)[C@@H](c1ccccc1)c1ccc(O)c(Br)c1 [Example 351, (3S)-3-(3-bromo-4-hydroxyphenyl)-2,2-dimethyl-3-phenyl-N-1,3,4-thiadiazol-2-ylpropanamide] | 66 | –
32 | 39 | – | CC(=O)c1ccc(-c2ccc(C(c3ccccc3)C(C)(C)C(=O)Nc3nncs3)cc2)cc1 (centres unmarked) [Example 406, 3-(4′-acetyl-4-biphenylyl)-2,2-dimethyl-3-phenyl-N-1,3,4-thiadiazol-2-ylpropanamide] | 29.4 | –
33 | 2.7 | – | CC(C)c1ccc(-c2ccc(C(c3ccccc3)C(C)(C)C(=O)Nc3nncs3)cc2)cc1 (centres unmarked) [Example 422, 3-(4′-isopropyl-4-biphenylyl)-2,2-dimethyl-3-phenyl-N-1,3,4-thiadiazol-2-ylpropanamide] | 33.7 | –
